Test results as given in paper PMC12040169 (PLOS Biology, 2025).

Test: in vitro
Settings: human, hela cells

Row | SMILES | viability at 28.5 h, 10 µM [%]
1 | CC1CN(C(=O)Oc2ccccc2)C(C)CN1CCCC(c1ccc(F)cc1)c1ccc(F)cc1 (centres unmarked) [CBK024993C] | 87.4

Same assay, conditions: human, hela cells, % viability

Row | SMILES | viability at 28.5 h, 10 µM [%]
2 | CN1CCCC1C(CCNC1CCCCC1)c1ccccc1 (centres unmarked) [CBK023921C] | 99
3 | COc1ccccc1NC(=O)CN1CCN(CCC(=O)c2ccc(C(C)C)cc2)CC1 [CBK023925C] | 95
4 | CC1(C)OC(N2CCN(Cc3ccccc3)CC2)=Nc2ccccc21 [CBK023933C] | 90.9
5 | c1ccc2[nH]c(CCSCCc3nc4ccccc4[nH]3)nc2c1 [CBK023949] | 86
6 | O=c1[nH]c(=S)c2c(n1CCc1ccccn1)CCCC2 [CBK023951G] | 101
7 | c1ccc2c(c1)CCC(CNCCN1CCOCC1)O2 (centres unmarked) [CBK023956G] | 94
8 | CCN(CC)CC1CCCCC1=O (centres unmarked) [CBK023965G] | 93.9
9 | NCCNCCNCCN [CBK023985C] | 93.2
10 | Cc1cc(C(=O)NCCc2ccc(S(=O)(=O)NC(=O)NC3CCCCC3)cc2)n[nH]1 [CBK023997] | 99.1
11 | Nc1ccc2cc3ccc(N)cc3nc2c1 [CBK024003G] | 71
12 | COc1ccc2c3c1CCC(C)(C)C3COC2CCN1CCN(c2ccc(F)cc2)CC1 (centres unmarked) [CBK024047C] | 86.7
13 | N=C(N)NCCc1ccc(Cl)cc1 [CBK024074G] | 105
14 | CC1(C)COC(CCN2CCN(c3ccc(F)cc3)CC2)c2ccccc21 (centres unmarked) [CBK024080C] | 105
15 | COc1ccccc1CN(C)C(C)=O [CBK024120] | 118
16 | CCC(=O)N[C@H]1CC[C@@]2(Cc3ccc(OC)cc3)CCN(C)[C@H]2C1 [CBK024126] | 98.9
17 | COc1ccc(C[C@@]23CC[C@H](NC(=O)NCCc4ccccc4)C[C@@H]2N(C)CC3)cc1 [CBK024127] | 95.2
18 | Cc1cc(C(F)(F)F)nc2c(OCCOc3nccnc3N3CCNCC3)cnn12 [CBK024195C] | 96.1
19 | COc1ccc(N)cc1OCCn1ccnc(N2CCNCC2)c1=O [CBK024211C] | 98.3
20 | OC(c1ccncc1)C(O)c1ccncc1 (centres unmarked) [CBK024254] | 87.1
21 | COc1ccc(CCC(=O)Nc2ccccc2N2CCCNCC2)cc1 [CBK024286T] | 101
22 | CCNc1cccnc1N1CCN(CCc2cc(C)c(O)c(C)c2)CC1 [CBK024361C] | 108
23 | CCCN1CCCC(c2ccccc2O)C1 (centres unmarked) [CBK024365G] | 95.3
24 | Oc1nc(O)c2c3c(n(CCn4ccnc4)c2n1)CCCC3 [CBK024380B] | 109

Row | SMILES | viability at 28.5 h, 10 µM [%]
25 | CC(C)CC(C(=O)Nc1ccc(C2CCCC2)cc1)N1CCN(C)CC1 (centres unmarked) [CBK024386C] | 87
26 | c1ccc(CNCc2nc(-c3ccccc3)no2)cc1 [CBK024404] | 99.1
27 | NS(=O)(=O)c1cccc(NC(=O)c2cccnc2)c1 [CBK024417] | 93.6
28 | NS(=O)(=O)c1cccc(NC(=O)c2cccs2)c1 [CBK024419] | 94.2
29 | CC(=O)NCCN(Cc1ccc(S(=O)(=O)N2CCOC2=O)cc1)Cc1ccoc1 [CBK024460] | 110
30 | COc1cccc(CC(=O)NCc2ccccc2OC2CCNC2)c1 (centres unmarked) [CBK024487T] | 88.5
31 | COCCC(=O)NCc1ccc(OC2CCNCC2)cc1 [CBK024494T] | 98.6
32 | COc1ccc(CCN(CCc2ccccc2)CC(O)COc2cccc3c2CCCC3)cc1 (centres unmarked) [CBK024506T] | 82.2
33 | COc1ccc(CCN(Cc2cccnc2)CC(O)COc2cccc3c2CCCC3)cc1 (centres unmarked) [CBK024545T] | 92
34 | CCCC(=O)Nc1ccc(N2CCNCC2)c2ccccc12 [CBK024619T] | 88.4
35 | O=C1OCCN1S(=O)(=O)c1ccc(CN2CCCN(Cc3ccc(S(=O)(=O)N4CCOC4=O)cc3)CC2)cc1 [CBK024728] | 87.1
36 | O=C1OCCN1S(=O)(=O)c1ccc(CN2CCN(Cc3ccc(S(=O)(=O)N4CCOC4=O)cc3)CC2)cc1 [CBK024729] | 91.4
37 | O=S(=O)(c1ccccc1)N(CC(F)(F)F)c1ccc(C(O)(C(F)(F)F)C(F)(F)F)cc1 [CBK024768] | 121
38 | CCCC(=O)Nc1cc(S(=O)(=O)NC)ccc1C [CBK024770] | 91.8
39 | Cc1c(Cl)cccc1S(=O)(=O)Nc1nccnc1C(=O)O [CBK024795] | 90.9
40 | O=C(O)c1c(NS(=O)(=O)Cc2ccccc2[N+](=O)[O-])sc2c1CCCC2 [CBK024819] | 106
41 | O=c1c(N2CCNCC2)nccn1CC1COc2ccccc2O1 (centres unmarked) [CBK024845T] | 87
42 | O=C1NC(N2CCCC2)=NOc2nnc(Cl)cc21 [CBK024856] | 109
43 | COc1cc(C(C)=O)ccc1OCCCN1CCC(O)(C(=O)c2cccc(C(F)(F)F)c2)CC1 [CBK024866C] | 103
44 | COc1cc(C(C)=O)ccc1OCCCN1CCC(O)(C(=O)c2ccc(Cl)c(Cl)c2)CC1 [CBK024875C] | 97.6
45 | CCCN1CCC2CN(CCCC(=O)c3ccc(F)cc3)CCN2C1=O (centres unmarked) [CBK024882C] | 101
46 | CCCCCCN1CCC2CN(CCCC(=O)c3ccc(F)cc3)CCN2C1=O (centres unmarked) [CBK024890C] | 99
47 | CC(C)CCN1CCC2CN(CCCC(c3ccc(F)cc3)c3ccc(F)cc3)CCN2C1=O (centres unmarked) [CBK024898C] | 102

Row | SMILES | viability at 28.5 h, 10 µM [%]
48 | CCNC(=O)N1CC(C)N(CCCC(c2ccc(F)cc2)c2ccc(F)cc2)CC1C (centres unmarked) [CBK024912C] | 105
49 | CCCCCNC(=O)N1CCN(CCCC(c2ccc(F)cc2)c2ccc(F)cc2)CC1 [CBK024917C] | 103
50 | CC1CN(C(=O)NC2CC2)C(C)CN1CCCC(c1ccc(F)cc1)c1ccc(F)cc1 (centres unmarked) [CBK024927C] | 104
51 | CC(=O)N1CCN(CCCC(c2ccc(F)cc2)c2ccc(F)cc2)CC1 [CBK024944C] | 101
52 | CNC(=O)N1CCN(CCOC(c2ccc(F)cc2)c2ccc(F)cc2)CC1 [CBK024948C] | 87.3
53 | CC(C)C(=O)N1CC(C)N(CCCC(c2ccc(F)cc2)c2ccc(F)cc2)CC1C (centres unmarked) [CBK024961C] | 97.6
54 | CCNC(=O)N1CCN(CCCCN2C(=O)CC3(CCCC3)CC2=O)CC1 [CBK024999C] | 102
55 | CCNC(=O)N1CCN(CCCC(O)c2ccc(F)cc2)CC1 (centres unmarked) [CBK025001C] | 118
56 | CCNC(=O)N1CC(C)N(CCCCc2ccc(F)cc2)C(C)C1 (centres unmarked) [CBK025027C] | 89.9
57 | O=C(CCCN1CCN(C(=O)NC2CCC(O)CC2)CC1)c1ccc(F)cc1 (centres unmarked) [CBK025156C] | 97
58 | Cc1cccc(N2CCN(CCCOc3ccc(F)c(F)c3)CC2)n1 [CBK025158C] | 106
59 | COc1cc(C(C)=O)ccc1OCCCN1CCC(O)(C(=O)c2ccc(F)cc2)CC1 [CBK025271C] | 85.8
60 | O=C(CCCN1CCN(CCCC(=O)c2ccc(F)cc2)CC1)c1ccc(F)cc1 [CBK025317C] | 89.1
61 | CC(C)OC(=O)c1cccnc1N1CCN(CCCC(c2ccc(F)cc2)c2ccc(F)cc2)CC1 [CBK025340C] | 103
62 | NC(=O)c1cccnc1N1CCN(CCCN(c2ccc(F)cc2)c2ccc(F)cc2)CC1 [CBK025341C] | 110
63 | CN(C)Cc1ccc(-c2cc3occ(-c4ccccc4)c3c(=O)n2C)cc1 [CBK025372] | 103
64 | CCC1(O)C(C)C(c2ccc(Cl)cc2)NC(c2ccc(Cl)cc2)C1C (centres unmarked) [CBK025376C] | 124
65 | Cc1ccccc1Cn1c(=O)sc2ccccc21 [CBK025408] | 94.9
66 | CSc1ccc(SC/C(N)=N/O)cc1 [CBK025411C] | 96.1
67 | C(=N\Nc1nc2ccccc2[nH]1)/c1cccs1 [CBK025417] | 87.6
68 | CCOc1ccc2c(c1)N1C(=O)NC(C(F)(F)F)(C(F)(F)F)N=C1S2 [CBK025440] | 85.4
69 | CC1(C)CC(=O)Nc2ccccc2S1 [CBK025483] | 98.2
70 | O=C1Nc2ccccc2SC1(O)C(F)(F)F (centres unmarked) [CBK025554] | 114

Row | SMILES | viability at 28.5 h, 10 µM [%]
71 | O=S1(=O)C=C(N2CCCCCC2)CC1 [CBK025571C] | 85.7
72 | CCOC(=O)COc1ccc2nsnc2c1Cl [CBK025603] | 91.4
73 | O=c1[nH]c(NCCCO)nc2sc3c(c12)CCCC3 [CBK025611] | 87.9
74 | NC1=NN2C(=C(c3ccc(O)c(C(=O)O)c3)NN2c2ccccc2)N1 [CBK025631] | 95.2
75 | Cn1c(=O)n(CC#N)c2ccccc21 [CBK025636] | 96.9
76 | COc1ccc(-c2cc3nnc(C)nc3s2)cc1 [CBK025638] | 107
77 | Nn1cnn2c(SCC(=O)Nc3ccc(Cl)cc3)nnc12 [CBK025688] | 99
78 | Nc1nonc1C(=O)NCc1cccnc1 [CBK025695] | 95.9
79 | Cc1ccc(OC(C)c2nc(-c3nonc3N)no2)cc1C (centres unmarked) [CBK025698] | 92.4
80 | Cc1cc(Cl)cc(Cl)c1OCCCc1c(C)n[nH]c1C [CBK025733C] | 76.9
81 | Cc1n[nH]c(C)c1CCCCCOc1ccccc1F [CBK025736C] | 88.9
82 | COc1cc(/C=N/Nc2nonc2N)cc(OC)c1OC [CBK025758] | 73.2
83 | COc1c(I)cc(Br)cc1/C=N/NC(=O)CC#N [CBK025764] | 91.8
84 | Cc1cc(C)n2nc(S(N)(=O)=O)c(C#N)c2n1 [CBK025767] | 90.7
85 | COc1cc(CN2CCN(c3ccccn3)CC2)cc(Br)c1O [CBK025770] | 91.9
86 | COc1ccc(CNC2CCCc3ccccc32)c(OC)c1C (centres unmarked) [CBK025778G] | 77.6
87 | CSc1nc(N)c2nccnc2n1 [CBK025779] | 104
88 | O=C(NC(Sc1ncccn1)C(=O)c1ccccc1)c1ccccc1 (centres unmarked) [CBK025806] | 95.5
89 | CCc1nnc(NC(=O)CSc2nc3c([nH]2)c(=O)n(C)c(=O)n3C)s1 [CBK025840] | 113
90 | C[S+]([O-])CC(O)(c1ccc(F)cc1)C1CC1 (centres unmarked) [CBK025846] | 114
91 | COc1ccc(N(CCC#N)S(=O)(=O)c2cccc3nsnc23)cc1 [CBK025851] | 90.7

Same assay, conditions: human, hela cells, % viability, bulk resorufin, single well

Row | SMILES | viability at 28.5 h, 10 µM [%]
92 | CCCN(CCc1cccnc1)C1Cc2cc(OC)c(OC)cc2C1 [CBK023935C] | 88.1
